Data from US20140199347A1, “ADJUVANT COMPOSITIONS WITH 4-1BBL” (UNIVERSITY OF LOUISVILLE RESEARCH FOUNDATION, INC., priority 2011, published 2014).

Columns and labels:
TC-1 tumors [1] = experiment: Therapeutic vaccination in the established TC-1 tumor model; assay type: in vivo, C57BL/6 mice; conditions: single subcutaneous vaccination day 6 post-tumor challenge, E7 protein 50 μg plus adjuvant 25 μg/agent; 90 days observation
Description: (§1) C57BL/6 mice were challenged subcutaneously with 1×10^5 live TC-1 cells into the right flank.

[2] = test system: intratumoral CD8^+ T cells and CD4^+Foxp3^+ Treg cells in TC-1 tumor; experiment: Intratumoral CD8+ T cells and CD4+Foxp3+ Treg cells by confocal microscopy; assay type: in vivo, mice; conditions: one week post-vaccination
Method: (§2) Spleens and/or tumor draining lymph nodes (TdLNs) were processed as described previously (7). For memory T cell typing, lymphocytes were stained with anti-CD8-APC-Cy7, anti-CD62L-FITC, and anti-CD44-APC antibodies. For intracellular cytokine staining, lymphocytes (1×10^6 cells/mL) were stimulated either with 10 μg/mL E749-57 peptide for 2 hrs followed by incubation with GolgiPlug (1 μl/mL, BD PharMingen) overnight or with phorbol 12-myristate 13-acetate (PMA) (5 ng/ml, Sigma) and ionomycin (500 ng/ml, Sigma) for 2 hrs followed by incubation with GolgiPlug (1 μl/ml) for an additional 4 hrs. Cells were first stained with anti-CD44-APC and anti-CD8-APC-Cy7, fixed with 4% paraformaldehyde, and then stained with anti-IFN-γ-PE-Cy7, anti-IL-2-Percp-Cy5.5, anti-TNF-PE, or isotype controls followed by acquisition and analysis as previously reported (12). Intratumoral CD8^+ T cells and CD4^+Foxp3^+ Treg cells were analyzed using confocal microscopy as described (12).
Mice bearing ˜3-4 mm TC-1 tumor were vaccinated subcutaneously with various vaccine formulations. One week post-vaccination, tumors were harvested and analyzed for the presence of intratumoral CD8^+ T cells and CD4^+FoxP3^+ Treg cells using confocal microscopy. […] (FIG. 3A, B).

[3] = test system: E749-57 peptide-specific CD8^+ T cells; experiment: Primary CD8+ T cell intracellular IFN-γ response of tumor draining lymphocytes; assay type: in vivo, mice; conditions: one week post-vaccination
Method: as §2

TC-1 target cells = experiment: Cytotoxicity assay; assay type: cell-based, mice; conditions: splenocytes one week post-vaccination, 5 days E749-57 + IL-2, effectors against TC-1 for 4 hrs
Method: Mice with ˜3-4 mm TC-1 tumors in diameter were vaccinated subcutaneously with vaccine formulations containing E7 protein (50 μg) alone or with SA-4-1BBL (25 μg), MPL (25 μg), or the combination of both agents (25 μg/agent). One week post-vaccination, splenocytes were cultured with 10 μg of E749-57 peptide/mL in complete MLR medium supplemented with 50 IU/mL of IL-2. Viable lymphocytes were harvested 5 days later using a Ficoll gradient and used as effectors at various ratios against TC-1 target cells for 4 hrs as described (41).

TC-1 tumors [4] = experiment: TC-1 tumor model with antibody depletion of CD8+ or CD4+ T cells before vaccination; assay type: in vivo, mice; conditions: E7 + MPL
Method: as §1
To test if a high CD8^+ Teff/Treg cell ratio can serve as a predictor of vaccine therapeutic efficacy, we used antibodies against CD8 and CD4 molecules to deplete CD8^+ Teff and Treg cells, respectively. Mice with established TC-1 tumors were treated with depleting antibodies one day before vaccination with E7 protein admixed with SA-4-1BBL/MPL or MPL as monotherapy.

[5] = test system: 3LL pulmonary metastatic tumors; experiment: 3LL pulmonary metastasis model, vaccination with survivin; assay type: in vivo, mice; conditions: single subcutaneous vaccination day 6 with SVN 50 μg plus adjuvant; lungs day 27
Method: For the pulmonary tumor model, 2×10^5 live 3LL cells were injected intravenously into the tail vein of mice. Mice were vaccinated subcutaneously either once on day 6 or twice on days 6 and 13 post-tumor challenge with various vaccine formulations containing survivin (SVN) protein (50 μg) alone as control or with SA-4-1BBL (25 μg), MPL (25 gig), or the combination of both agents (25 μg/agent). Mice were euthanized 27 days post-tumor challenge for analysis of lung tumor burden as described (12, 18).

3-O-desacyl-4′-monophosphoryl lipid A [MPL]
eradication of established TC-1 tumors, mice tumor-free (TC-1 tumors [1]): 50% | intratumoral Teff/Treg cell ratio ([2]; TC-1 tumor): no effect | number of intratumoral CD8+ T cells infiltration ([2]; TC-1 tumor): moderate effect | number of intratumoral Treg cells ([2]; ~3-4 mm TC-1 tumor, versus PBS controls or E7 protein alone): did not have detectable effect | E7 TAA-specific CD8+ T cell IFN-γ response (primary) [3]: failed to do so | TC-1 killing response (TC-1 target cells): failed to do so | therapeutic efficacy (TC-1 tumors [4]; depletion of CD4+ T cells including Treg cells one day before vaccination): 100% | therapeutic efficacy (TC-1 tumors [4]; without depletion): 50% | control of tumor growth (lung weight and presence of tumor nodules) [5]: statistically significant (P<0.05) effect in controlling tumor growth
